Data on 17 compounds can be found in ChEMBL document CHEMBL3739401, “Synthesis, in vitro, and in vivo evaluation of novel functionalized quaternary ammonium curcuminoids as potential anti-cancer agents” (Bioorg Med Chem Lett, 2015).

Series [1] concerns MDA-MB-231. Description: Cytotoxicity against human MDA-MB-231 cells at 20 to 50 uM by MTT assay. The format is functional, cell-based. (Tetrazolium dyes change colour on reduction, which living cells bring about.)
A short description of series [2]: Aqueous solubility of compound. It is filed as physicochemical. The settings on record: water.
Series [3] can be described thus: Cytotoxicity against human MIAPaCa2 cells by MTT assay. It is filed as functional, cell-based. To be noted: MIA PaCa-2.
For series [4], the system named is MDA-MB-231. Description: Cytotoxicity against human MDA-MB-231 cells by MTT assay. It is filed as functional, cell-based.
A further series has as its system 4T1. Nature of the series: Cytotoxicity against mouse 4T1 cells by MTT assay. The format is functional, cell-based.
A short description of series [5]: Antitumor activity against human MIAPaCa2 cells xenografted in athymic nude mouse assessed as tumor growth inhibition at 40 mg/kg, ip bid cotreated with gemcitabine (100 mg/kg, ip twice weekly. The format is functional, MIA PaCa-2. In general terms: Xenograft models place foreign cells or tissue in a host animal.
The subject of series [6] is Mus musculus. Description: Toxicity in CD-1 mouse assessed as sign of stress at 50 mg/kg, ip measured after 7 days. The settings on record: in vivo, 168 h. The format is organism-based.
Series [7] deals with Mus musculus. Nature of the series: Toxicity in CD-1 mouse assessed as survival at 30 mg/kg, ip bid. The format is organism-based. To be noted: in vivo.
A short description of series [8]: Antitumor activity against human MIAPaCa2 cells xenografted in athymic nude mouse assessed as tumor growth inhibition at 40 mg/kg, ip bid. The format is functional. To be noted: MIA PaCa-2, ip, read-out: TGI.
In series [9] the test system is Mus musculus. Description: Toxicity in CD-1 mouse assessed as effect on body weight at 50 mg/kg, ip measured after 7 days. It is filed as organism-based. To be noted: in vivo, 168 h.
In series [10] the test system is Mus musculus. Nature of the series: Toxicity in CD-1 mouse assessed as survival at 50 mg/kg, ip measured after 7 days. It is filed as organism-based. To be noted: in vivo, 168 h.
Series [11] deals with Mus musculus. Nature of the series: Toxicity in CD-1 mouse assessed as sign of stress at 30 mg/kg, ip bid. The format is organism-based. The settings on record: in vivo.
For series [12], the system named is Mus musculus. Description: Toxicity in CD-1 mouse assessed as effect on body weight at 30 mg/kg, ip bid. The format is organism-based. The settings on record: in vivo.
Series [13] relates to MDA-MB-231. Nature of the series: Cytotoxicity against human MDA-MB-231 cells upto 50 uM by MTT assay. It is filed as functional, cell-based.
Series [14] can be described thus: Antitumor activity against human MIAPaCa2 cells xenografted in athymic nude mouse assessed as tumor growth inhibition at 100 mg/kg, ip twice weekly. It is filed as functional. To be noted: MIA PaCa-2, ip, read-out: TGI.

Active and inactive are the calls of the source. No cut-off for these calls is given here.

For the compound `C=C(CBr)C(=O)OC`, the outcome in the series with MDA-MB-231 [1] was Active.

`C=C(C[N+]1(C)CCN(c2ccc(/C=C/C(=O)/C=C(O)/C=C/c3ccc(N4CC[N+](C)(CC(=C)C(=O)OCCCC)CC4)cc3)cc2)CC1)C(=O)OCCCC.[Br-].[Br-]`: the solubility (commonly the dissolved amount per volume that the medium holds) in series [2] came to 1000 µg/mL. In addition, the IC50 (in general, the concentration that inhibits the measured activity by half) in series [3] came to 4.4 µM; in the series with MDA-MB-231 [4] it was 3.7 µM; in the series on 4T1 it was 4.1 µM.

Take `C=C(C[N+]1(C)CCN(c2ccc(/C=C/C(=O)/C=C(O)/C=C/c3ccc(N4CC[N+](C)(CC(=C)C(=O)OC)CC4)cc3)cc2)CC1)C(=O)OC.[Br-].[Br-]`: in series [5], the tumour growth inhibition (TGI) (commonly the reduction of tumour growth relative to the control group) is recorded as 57%. Moreover, the Activity result with Mus musculus [6], with Mus musculus [7], with Mus musculus [9], with Mus musculus [10], in the series on Mus musculus [11] and in the series on Mus musculus [12] was “Non-toxic” in each case. The solubility in series [2] worked out at 1000 µg/mL. Also, the inhibition in vivo at 40 mg/kg in series [8] amounted to 42%. Besides, the IC50 in series [3] amounted to 2.7 µM; in the series with MDA-MB-231 [4] it was 3.6 µM; in the series on 4T1, 4.1 µM.

As to `COc1cc(/C=C/C(=O)CC(=O)/C=C/c2ccc(O)c(OC)c2)ccc1O` [CURCUMIN], the results for the IC50 (in series [3]; in the series on MDA-MB-231 [4]; in the series on 4T1) were 20 µM, 15 µM and 20 µM, respectively.

In [2], `C=C(C[N+]1(C)CCN(c2ccc(/C=C/C(=O)/C=C(O)/C=C/c3ccc(N4CC[N+](C)(CC(=C)C(=O)OCCCCCC)CC4)cc3)cc2)CC1)C(=O)OCCCCCC.[Br-].[Br-]` gave a solubility of 1000 µg/mL. Moreover, the values for the 50% inhibitory concentration (IC50) (in [3]; with MDA-MB-231 [4]; in the series with 4T1) were 4.2 µM, 4.2 µM and 3.4 µM, respectively.

As for `C=C(C[N+]1(C)CCN(c2ccc(/C=C/C(=O)/C=C(O)/C=C/c3ccc(N4CC[N+](C)(CC(=C)C(=O)N(C)C)CC4)cc3)cc2)CC1)C(=O)N(C)C.[Br-].[Br-]`, in series [2], the solubility worked out at 1000 µg/mL. Also, the IC50 in series [3] is 14.2 µM; in the series with MDA-MB-231 [4] it was 15.1 µM; in the series on 4T1, 17.2 µM.

Consider `C=CC[N+]1(C)CCOCC1`, for which the solubility in series [2] was over 100000 µg/mL.

Turning to `C=C(C(=O)OC)C(O)c1ccccc1` (configuration not stated), the result with MDA-MB-231 [13] was inactive.

In [2], `C=CC[N+]1(C)CCN(c2ccc(/C=C/C(=O)/C=C(O)/C=C/c3ccc(N4CC[N+](C)(CC=C)CC4)cc3)cc2)CC1.[Br-].[Br-]` came in with a solubility of 15000 µg/mL. Also, the half-maximal inhibitory concentration (IC50) (in series [3]; in the series on MDA-MB-231 [4]; in the series with 4T1) was over 100 µM in each case.

As to `COC(=O)/C(=C/c1ccccc1)CBr`, the result with MDA-MB-231 [1] was Active.

Take `COC(=O)/C(=C\c1ccccc1)C[N+]1(C)CCN(c2ccc(/C=C/C(=O)/C=C(O)/C=C/c3ccc(N4CC[N+](C)(C/C(=C/c5ccccc5)C(=O)OC)CC4)cc3)cc2)CC1.[Br-].[Br-]`: in series [2], the solubility was 1000 µg/mL. For the same compound, the IC50 came to 4.1 µM in [3], 6.2 µM with MDA-MB-231 [4] and 5 µM with 4T1.

For `C=C(C[N+]1(C)CCOCC1)C(=O)OC`, the solubility in series [2] was over 100000 µg/mL.

As to `Nc1ccn([C@@H]2O[C@H](CO)[C@@H](O)C2(F)F)c(=O)n1` [GEMCITABINE], the inhibition in vivo at 100 mg/kg in series [14] was found to be 47%.

For the compound `CN1CCN(c2ccc(/C=C/C(=O)/C=C(O)/C=C/c3ccc(N4CCN(C)CC4)cc3)cc2)CC1`, the IC50 (in series [3]; with MDA-MB-231 [4]; in the series with 4T1) was over 100 µM in each case.

For `C[N+]1(Cc2ccccc2)CCN(c2ccc(/C=C/C(=O)/C=C(O)/C=C/c3ccc(N4CC[N+](C)(Cc5ccccc5)CC4)cc3)cc2)CC1.[Br-].[Br-]`, in series [2], the solubility is 15000 µg/mL. The IC50 (in [3]; in the series on MDA-MB-231 [4]; with 4T1) was over 100 µM each time.

In [2], `C[N+]1(Cc2ccccc2)CCOCC1` registered a solubility of over 100000 µg/mL.

For the compound `O=C(/C=C(O)/C=C/c1ccc(N2CCN(CCO)CC2)cc1)/C=C/c1ccc(N2CCN(CCO)CC2)cc1`, the concentration for half-maximal inhibition (IC50) (in [3]; in the series with MDA-MB-231 [4]; in the series with 4T1) was over 100 µM each time.
